# Laboratory results reported in patent EP1501797B1, “3-(SUBSTITUTED AMINO)-1H-INDOLE-2-CARBOXYLIC ACID ESTER AND 3-(SUBSTITUTED AMINO)-BENZO[B]THIOPHENE-2-CARBOXYLIC ACID ESTER DERIVATIVES AS INTERLEUKIN-4 GENE EXPRESSION INHIBITORS” (Aventis Pharmaceuticals Inc., priority 2002, dated 2003).
# Where “and” joins values, the source holds several entries; their conditions need not be identical. Identical values can stand only once. Like-named read-outs stand apart in the source and are kept apart here.
# Columns and labels:
# human IL-4 promoter = test: IL-4 Luciferase assay in Jurkat cells (6.7-IL-4 Luc); format: cell-based; conditions: Jurkat cell line; concentration not given
# IL-4 = test: Human primary Th2 cells, anti-CD3/anti-CD28 activated, IL-4 ELISA; format: cell-based
# Description: (§1) Briefly, CD4^+CD45RA^+ T cells, isolated from donor peripheral blood mononuclear cells of healthy donors, are educated in the presence of anti-CD3/CD28 antibodies and various growth factors to obtain either a Thl-like or Th2-like phenotypes as determined by the known cytokine profiles of these two cell types.
# (§2) Peripheral blood mononuclear cells (PBMC) are prepared from human blood by Ficoll-Hypacque (Pharmacia). The cells are washed two times in Hanks balanced salt solution (HBSS) and counted.
# (§3) Naive T cells (CD4^+/CD45RA ) are prepared by negative selection method using following antibodies and Dynabeads: anti-CD8, anti-HLA-DR, (where HLA means human leucocyte antigen) anti-CD14, anti-CD16, anti-CD19, anti-CD45RO antibodies (all from R&D Systems, 1-2 µg/ml) are added to the cells, and the cells are kept on ice for 30 min. The cells are washed two times in HBSS, and goat anti- mouse Ig-beads, (bead:target ratio, 5:1) are added. The cells and beads are slowly rotated at 4°C for 20 min. (following the protocol supplied from Dynal). The supernatant is removed and fresh goat anti-mouse Ig-beads are added to the supernatant, which is slowly rotated at 4°C for 20 min. The cells are counted and phenotypically characterized by flow cytometric analysis.
# (§4) CD4^+/CD45RA^+ cells at a density of 10^6/ml in RPMI, is prepared and added to RPMI medium containing 10% Hyclone serum/ glutamine and 1-2 µg/ml anti-CD28 Ab. The cells are split in two aliquots. For Th1 cells: anti-IL-4 Ab (1-2 µg/ml), IFN-γ (1 µg/ml, or 5000 units/ml) are added to the wells. For Th2 cells: IL-4 (100-200 ng/ml), anti-IFN-γ neutralizing Ab (1-2 µg/ml), anti-IL-12 neutralizing Ab (1-2 µg/ml) are added into the wells. […] The cells are transferred to fresh wells and grown in 200 units/ml IL-2 for 2 weeks by feeding them every other day with IL-2 containing medium and splitting the cultures 1:2 or 1:3 as needed. The degree of polarization is determined by intracellular staining of cells with anti-IFN-γ and anti-IL-4 antibodies from Pharmingen, and using flow cytometry from Becton Dickinson (BD), according to manufacturers description. The cells are stimulated with PHA and alloantigens at day 14 and 28 as described below. Eight days after the second allostimulation the cells can be used for compound screening or frozen for future use. For compound testing, large quantities of Th1 and Th2 cells derived from a given donor (NYTh1 and NYTh2) were expanded and frozen as aliquots in liquid nitrogen. The cells are thawed and cultured as and when needed. The thawed cells are stimulated with alloantigen/PHA combination. The cells are used for compound screening after 8-10 days in culture.
# (§5) Re-stimulation by allogeneic cells: Human PBMCs, to be used as alloantigens, are isolated from freshly drawn blood by Ficoll separation. […] Cells are counted and diluted to a final concentration of 2 x 10^6/ml in medium containing 10 µg/ml PHA and 200 units/ml IL-2.
# (§6) Ninetysix well Falcon tissue culture plates (Fisher Scientific) are coated with 100 microliters per well of 10 µg/ml anti-CD3 (PharMingen) antibody in phosphate buffered saline (PBS) and stored at 4°C one day before the experiment.
# (§7) On the day of assay, anti-CD3 antibody coated plates are washed with PBS once to remove all soluble anti-CD3 antibody. […] All compounds and controls are assayed in triplicates.
# IL-5 = test: Human primary Th2 cells, anti-CD3/anti-CD28 activated, IL-5 ELISA; format: cell-based
# Description: as §1, §2, §3, §4, §5, §6, §7
# IFN-γ = test: Human primary Th2 cells, anti-CD3/anti-CD28 activated, IFN-γ ELISA; format: cell-based
# Description: as §1, §2, §3, §4, §5, §6, §7
# IL-4 mRNA = test: Human Th2 IL-4 transcriptional assay (Taqman, GAPDH normalised); format: cell-based; conditions: 18 hours, stimulated CD3/CD28 = 100%
# Description: RNAs were isolated from the harvested cells and analyzed for IL-4 message by Taqman. GAPDH message was used as an internal standard for normalization. The percent activity was calculated by treating the values from not drug treated, anti-CD3 and anti-CD28 stimulated Th2 cells as 100%. […] In the second experiment IL-4 protein levels were also determined by standard ELISA in culture supernatants as described earlier. […]
# IgG1 Anti-DNP Antibody = test: In vivo model of humoral immunity in mice (DNP-KLH), IgG1 anti-DNP antibody
# Description: Female Balb/c mice, each weighing approximately 20 to 25 grams each, aged 5 to 8 weeks are used. Each experiment uses 30 mice.
# The antigen for immunization is 2,4-dinitrophenyl (DNP) or 2,4,6-trinitrophenyl (TNP) conjugated to keyhole limpet haemocyanin (KLH). The antigen (100 µg/mouse) is adsorbed to an adjuvant (colloidal aluminum hydroxide) and given i.p. to animal in a total volume of 0.2-0.3 ml.
# Animals are randomly divided into 5 groups of 6 mice each. Group 1 is a positive control group, Groups 2, 3, and 4 are test compound groups, and Group 5 is a vehicle control group. Compounds may be given by i.n., i.p., p.o., s.c., i.m. or i.v. administration. […] On day 8 after the immunization, mice are bled by cardiac puncture under anesthesia (isoflurane), and the serum samples are stored at -20°C until required for antibody analysis. The anesthetized animals are euthanized with overdosage of sodium pentobarbital at the end of experiment. Statistical analysis of the data are performed using ANOVA.
# Mice are immunized with a hapten carrier conjugate, DNP-KLH, and anti-DNP antibody levels are determined in a isotype specific manner as described above. […]
# [1] = Human primary Th2 cells, combined data from 10 different experiments
structure (smiles),measurement,setting,value
"O=C(O)c1[nH]c2ccccc2c1Nc1ccncc1 [Example 28, 3-(4-Pyridinylamino)-1H-indole-2-carboxylic acid]",6.7-IL-4 Luc (% of control),human IL-4 promoter,62 ± 29 % of control
same,IL-4 PROTEIN Exp #2,"IL-4; 10 µM, 18 hrs, ELISA of culture supernatants, stimulated control 625.0+/- 23",286.2 ± 19 pg/mL
same,activity at 0.01 µM,"IL-4; Homo sapiens, 0.01 µM, 48 hr, read-out: IL-4 (% control) mean",102%
same,activity at 0.03 µM,"IL-4; Homo sapiens, 0.03 µM, 48 hr, read-out: IL-4 (% control) mean",65.3%
same,activity at 0.1 µM,"IL-4; Homo sapiens, 0.1 µM, 48 hr, read-out: IL-4 (% control) mean",59.8%
same,activity at 0.3 µM,"IL-4; Homo sapiens, 0.3 µM, 48 hr, read-out: IL-4 (% control) mean",45%
same,activity at 1 µM,"IL-4; Homo sapiens, 1 µM, 48 hr, read-out: IL-4 (% control) mean",42.5%
same,activity at 3 µM,"IL-4; Homo sapiens, 3 µM, 48 hr, read-out: IL-4 (% control) mean",36.4%
same,activity at 10 µM,"IL-4; Homo sapiens, 10 µM, 48 hr, read-out: IL-4 (% control) mean",30.8%
same,IC50,IL-4; [1],0.24 µM
same,IFN-γ/ IL-4 Ratio,"IL-4; Human primary Th2 cells, ratio of IC50",> 41
same,activity at 0.01 µM,"IL-5; Homo sapiens, 0.01 µM, 48 hr, read-out: IL-5 (% control) mean",102%
same,activity at 0.03 µM,"IL-5; Homo sapiens, 0.03 µM, 48 hr, read-out: IL-5 (% control) mean",85.2%
same,activity at 0.1 µM,"IL-5; Homo sapiens, 0.1 µM, 48 hr, read-out: IL-5 (% control) mean",78.6%
same,activity at 0.3 µM,"IL-5; Homo sapiens, 0.3 µM, 48 hr, read-out: IL-5 (% control) mean",70.8%
same,activity at 1 µM,"IL-5; Homo sapiens, 1 µM, 48 hr, read-out: IL-5 (% control) mean",70.7%
same,activity at 3 µM,"IL-5; Homo sapiens, 3 µM, 48 hr, read-out: IL-5 (% control) mean",70.4%
same,activity at 10 µM,"IL-5; Homo sapiens, 10 µM, 48 hr, read-out: IL-5 (% control) mean",53.9%
same,IC50,IL-5; [1],~10 µM
same,activity at 0.01 µM,"IFN-γ; Homo sapiens, 0.01 µM, 48 hr, read-out: IFN-γ (% control) mean",96.9%
same,activity at 0.03 µM,"IFN-γ; Homo sapiens, 0.03 µM, 48 hr, read-out: IFN-γ (% control) mean",91.6%
same,activity at 0.1 µM,"IFN-γ; Homo sapiens, 0.1 µM, 48 hr, read-out: IFN-γ (% control) mean",91.8%
same,activity at 0.3 µM,"IFN-γ; Homo sapiens, 0.3 µM, 48 hr, read-out: IFN-γ (% control) mean",92.1%
same,activity at 1 µM,"IFN-γ; Homo sapiens, 1 µM, 48 hr, read-out: IFN-γ (% control) mean",89.2%
same,activity at 3 µM,"IFN-γ; Homo sapiens, 3 µM, 48 hr, read-out: IFN-γ (% control) mean",83.5%
same,activity at 10 µM,"IFN-γ; Homo sapiens, 10 µM, 48 hr, read-out: IFN-γ (% control) mean",75%
same,IC50,IFN-γ; [1],> 10 µM
same,mrna remaining at 10 µM,IL-4 mRNA; read-out: RNA Exp #1 % activity,44%
same,mrna remaining at 10 µM,IL-4 mRNA; read-out: RNA Exp #2 % activity,45%
same,IgG1 Anti-DNP Antibody Titer,"IgG1 Anti-DNP Antibody; individual animals 1-6, dose not stated",72.42 and 185.22 and 19.83 and 40.19 and 83.11 and 37.83
same,IgG1 Anti-DNP Antibody Titer Mean+/-SE,"IgG1 Anti-DNP Antibody; vehicle 167.69 +/-18.19, dose not stated",73.10 +/-24.38
same,IgG1 Anti-DNP Antibody Titer Inhibition,IgG1 Anti-DNP Antibody; versus vehicle,56.5%
